Reference: patent publication US11084795B2, “CFTR regulators and methods of use thereof” (The Regents of the University of California, priority 2015, dated 2021)
Values joined by “and” are separate entries in the source; they are usually repeats but may differ in a detail not shown here. Equal entries are not always repeated. “Also recorded” adds a separate entry of the source. Where two headings read alike, the source gives them in different places.

Columns and labels:
ΔF508-CFTR = target: T1, ΔF508-CFTR (Homo sapiens, UniProt P13569, DEL508-508); test: Short-circuit current in FRT cells expressing ΔF508-CFTR corrected with VX-809; type: cell-based; conditions: after overnight incubation with a corrector
T1 construct: expressed in transfected cells; host or cells: Fischer rat thyroid (FRT) cells
T1 sequence (P13569 with tags, fused parts or gaps DEL508-508): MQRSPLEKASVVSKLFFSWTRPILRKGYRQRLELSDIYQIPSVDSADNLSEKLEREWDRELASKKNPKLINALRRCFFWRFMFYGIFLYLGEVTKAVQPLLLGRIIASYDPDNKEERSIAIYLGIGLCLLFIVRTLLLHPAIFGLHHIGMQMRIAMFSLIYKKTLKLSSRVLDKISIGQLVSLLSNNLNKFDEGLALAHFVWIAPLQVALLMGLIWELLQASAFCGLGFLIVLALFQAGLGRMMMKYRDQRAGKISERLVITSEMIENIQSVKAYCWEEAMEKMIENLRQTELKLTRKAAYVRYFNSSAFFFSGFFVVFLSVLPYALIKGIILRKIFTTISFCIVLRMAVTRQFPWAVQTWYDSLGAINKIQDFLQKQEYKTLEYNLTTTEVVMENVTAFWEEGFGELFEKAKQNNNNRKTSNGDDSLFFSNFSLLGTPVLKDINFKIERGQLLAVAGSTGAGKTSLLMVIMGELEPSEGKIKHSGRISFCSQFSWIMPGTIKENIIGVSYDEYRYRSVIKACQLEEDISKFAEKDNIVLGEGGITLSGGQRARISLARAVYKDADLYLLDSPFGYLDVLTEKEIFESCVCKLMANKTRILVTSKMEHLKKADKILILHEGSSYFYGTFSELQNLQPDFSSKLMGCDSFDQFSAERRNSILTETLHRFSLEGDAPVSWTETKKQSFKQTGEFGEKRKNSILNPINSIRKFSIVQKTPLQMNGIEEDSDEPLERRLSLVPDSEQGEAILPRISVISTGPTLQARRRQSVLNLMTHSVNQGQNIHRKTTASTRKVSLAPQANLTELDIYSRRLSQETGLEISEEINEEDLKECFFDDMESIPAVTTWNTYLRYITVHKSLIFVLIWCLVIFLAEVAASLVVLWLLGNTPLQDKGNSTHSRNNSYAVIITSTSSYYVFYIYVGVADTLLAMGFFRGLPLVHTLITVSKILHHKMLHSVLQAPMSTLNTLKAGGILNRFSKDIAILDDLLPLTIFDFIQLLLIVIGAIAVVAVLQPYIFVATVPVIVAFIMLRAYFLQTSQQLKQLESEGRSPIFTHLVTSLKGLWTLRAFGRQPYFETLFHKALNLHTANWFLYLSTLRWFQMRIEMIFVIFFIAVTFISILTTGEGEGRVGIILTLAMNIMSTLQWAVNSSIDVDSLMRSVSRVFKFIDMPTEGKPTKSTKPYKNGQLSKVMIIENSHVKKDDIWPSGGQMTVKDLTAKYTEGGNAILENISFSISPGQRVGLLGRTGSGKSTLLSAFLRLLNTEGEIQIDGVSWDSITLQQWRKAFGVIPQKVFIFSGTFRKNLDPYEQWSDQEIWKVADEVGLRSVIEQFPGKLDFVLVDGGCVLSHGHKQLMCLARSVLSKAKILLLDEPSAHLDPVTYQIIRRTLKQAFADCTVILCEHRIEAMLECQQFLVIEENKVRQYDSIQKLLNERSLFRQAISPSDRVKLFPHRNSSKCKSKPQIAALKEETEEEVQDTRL
Protocol: FIGS. 9A-9E. Characterization of CFTR activation by CFTRact-J027. Short-circuit current measured in FRT cells expressing human wild-type CFTR (FIG. 9A) and ΔF508-CFTR (FIG. 9C) showing responses to indicated concentrations of forskolin (fsk), CFTRact-J027, and VX-770. The ΔF508-CFTR-expressing FRT cells were corrected with 3 μM VX-809 at 37° C. for 24 h before measurement. CFTRinh-172 (Inh-172, 10 μM) was added where indicated. FIG. 9B. CFTRact-J027 concentration-dependent activation of wild-type CFTR Cl^− current (S.E.; n=3 cultures). FIG. 9D. Short-circuit current in mouse colon showing responses to indicated concentrations of forskolin (fsk), CFTRact-J027, and CFTRinh-172. FIG. 9E. Assay of cAMP concentration in FRT cells measured following 10-min incubation with indicated concentrations of forskolin and 5 μM CFTRact-J027. Positive controls included forskolin (100 nM and 20 μM), and forskolin plus 3-isobutyl-1-methylxanthine (IBMX, 100 μM) (mean±SE, n=4-8).

[1] = test system: Cl− secretion in mouse colon; test: Short-circuit current in freshly isolated mouse colon; conditions: read-out: EC50 for increase in short-circuit current in mouse colon
Text: Short-circuit current measurement.

[2] = test system: intestinal fluid absorption; test: Closed mid-jejunal loop model of intestinal fluid absorption in cystic fibrosis mice; type: in vivo, mouse; conditions: 30 min
Protocol: Mice (wildtype or CF) were given access to 5% dextrose water but not solid food for 24 h before experiments. Mice were anesthetized with isoflurane and body temperature was maintained during surgery at 36-38° C. using a heating pad. A small abdominal incision was made to expose the small intestine, and closed mid-jejunal loops (length 2-3 cm) were isolated by sutures. Loops were injected with 100 μL vehicle alone or 100 μg CFTRact-J027 in vehicle. The abdominal incision was closed with sutures, and mice were allowed to recover from anesthesia. Intestinal loops were removed at 90 min and loop length and weight were measured to quantify fluid secretion. Intestinal absorption was measured in CF mice (to prevent secretion) as described above, except that the loops were removed at 0 or 30 min. Absorption was calculated as 1−(loop weight at 0 min−loop weight at 30 min)/loop weight at 0 min.
In vivo intestinal secretion and absorption. Mice (wildtype or CF) were given access to 5% dextrose water but not solid food for 24 h before experiments. […] Intestinal loops were removed at 90 min and loop length and weight were measured to quantify fluid secretion. Intestinal absorption was measured in CF mice (to prevent secretion) as described above, except that the loops were removed at 0 or 30 min. Absorption was calculated as 1−(loop weight at 0 min−loop weight at 30 min)/loop weight at 0 min.

[3] = In vitro metabolic stability in mouse liver microsomes; type: in vitro ADME; conditions: NADPH
Protocol: (§1) CFTRact-J027 (5 μM) was incubated for specified times at 37° C. with mouse liver microsomes (1 mg protein/ml; Sigma-Aldrich) in potassium phosphate buffer (100 mM) containing 1 mM NADPH, as described. The mixture was then chilled on ice, and 0.5 ml of ice-cold ethyl acetate was added. Samples were centrifuged for 15 min at 3000 rpm, the supernatant evaporated to dryness, and the residue was dissolved in 100 μL mobile phase (acetonitrile:water, 3:1) for LC/MS and assayed as described above.
as §1, with “In vitro metabolic stability. CFTRact-J027” for “CFTRact-J027”
In vitro metabolic stability. Test compound (at 5 μM) was incubated for specified times at 37° C. with mouse liver microsomes (1 mg protein/ml; Sigma-Aldrich, St. Louis, Mo.) in potassium phosphate buffer containing 1 mM NADPH, as described. Following ethyl acetate extraction, non-metabolized parent compound was assayed by LC/MS.

[4] = test system: enteroids generated from normal human duodenum and jejunum; test: Swelling measurements in human enteroids; type: cell-based; conditions: pretreatment 10 min, with 0.1 or 0.2 μM forskolin
Protocol: Tissues from human subjects were obtained under approval of the Johns Hopkins University School of Medicine Institutional Review Board (protocol NA_00038329). Duodenal and jejunal biopsy specimens were obtained from adults during routine endoscopy at Johns Hopkins Hospital. Crypt isolation, enteroid propagation and culture were as described (16). For swelling measurements enteroids were seeded in 35-mm dishes with bottom coverglass with 1.5 mL media. On the day of the experiment the media was replaced with 3 mL Advanced DMEM/F12 and enteroids were incubated with 1 mM calcein greenacetoxymethyl ester for 1 h at 37° C. to label cytoplasm. Relative enteroid volume following addition of specified concentrations of forskolin was measured using a laser scanning confocal microscope (Fluoview FV10i-LIV; Olympus) at 37° C., 5% CO2, and 95% relative humidity. In some studies CFTRact-J027 was added 10 min prior to forskolin. Images were acquired every 10 min and analyzed with MetaMorph version 7.7 software (Olympus) to quantify enteroid areas.

loperamide-treated mice = test: Loperamide-induced mouse model of constipation; conditions: for ED50: Mus musculus
human wildtype CFTR [5] = target: T2, human wildtype CFTR (Homo sapiens, UniProt P13569); test: Short-circuit current (Isc) in FRT cells expressing human wild-type CFTR
T2 sequence (P13569 whole entry): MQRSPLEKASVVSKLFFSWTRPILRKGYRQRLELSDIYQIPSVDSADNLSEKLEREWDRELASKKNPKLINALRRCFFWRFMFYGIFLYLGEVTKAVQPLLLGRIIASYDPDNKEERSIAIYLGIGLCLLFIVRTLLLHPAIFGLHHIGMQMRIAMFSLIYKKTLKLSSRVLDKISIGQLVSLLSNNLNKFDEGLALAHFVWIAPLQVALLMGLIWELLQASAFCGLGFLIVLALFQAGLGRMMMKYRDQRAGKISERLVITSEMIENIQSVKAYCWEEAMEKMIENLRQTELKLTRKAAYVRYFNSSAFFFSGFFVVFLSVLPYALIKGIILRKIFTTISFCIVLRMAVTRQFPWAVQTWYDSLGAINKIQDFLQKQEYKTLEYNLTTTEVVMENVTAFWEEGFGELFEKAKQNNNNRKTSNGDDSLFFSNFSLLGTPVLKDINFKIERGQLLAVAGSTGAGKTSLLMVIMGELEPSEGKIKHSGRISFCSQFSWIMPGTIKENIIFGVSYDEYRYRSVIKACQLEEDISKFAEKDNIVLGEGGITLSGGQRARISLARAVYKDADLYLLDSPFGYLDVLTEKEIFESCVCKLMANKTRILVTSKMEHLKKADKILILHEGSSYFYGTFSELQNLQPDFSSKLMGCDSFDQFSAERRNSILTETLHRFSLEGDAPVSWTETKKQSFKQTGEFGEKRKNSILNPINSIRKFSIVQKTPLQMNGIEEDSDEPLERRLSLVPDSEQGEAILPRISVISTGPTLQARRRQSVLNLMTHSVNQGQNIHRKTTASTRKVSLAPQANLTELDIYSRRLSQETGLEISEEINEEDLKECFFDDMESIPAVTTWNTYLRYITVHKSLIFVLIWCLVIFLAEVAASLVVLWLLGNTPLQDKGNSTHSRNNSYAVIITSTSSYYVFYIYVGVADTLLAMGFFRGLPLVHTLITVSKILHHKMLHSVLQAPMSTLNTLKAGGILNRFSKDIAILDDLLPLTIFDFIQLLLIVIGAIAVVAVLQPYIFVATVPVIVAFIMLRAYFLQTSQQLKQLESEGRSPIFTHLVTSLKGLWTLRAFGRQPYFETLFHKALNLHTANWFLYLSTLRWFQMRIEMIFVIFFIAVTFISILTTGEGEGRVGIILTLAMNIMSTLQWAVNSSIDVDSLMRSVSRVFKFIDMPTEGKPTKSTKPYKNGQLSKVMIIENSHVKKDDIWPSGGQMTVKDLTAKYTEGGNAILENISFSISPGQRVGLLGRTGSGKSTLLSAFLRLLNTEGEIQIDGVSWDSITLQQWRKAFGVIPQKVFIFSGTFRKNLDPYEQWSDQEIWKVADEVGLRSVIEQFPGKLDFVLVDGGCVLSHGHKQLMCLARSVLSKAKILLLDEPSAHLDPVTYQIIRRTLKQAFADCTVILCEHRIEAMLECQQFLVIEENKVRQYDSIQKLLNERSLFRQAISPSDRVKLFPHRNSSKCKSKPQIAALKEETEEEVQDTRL

human wildtype CFTR [6] = target: T2, human wildtype CFTR; test: Fluorescence plate reader assay of iodide influx in FRT cells co-expressing CFTR and YFP halide sensor; conditions: synthesized compounds, full dose-response study; 125 nM forskolin

Nc1ccc([N+](=O)[O-])cc1-c1nc2ccccc2n(Cc2ccccc2)c1=O [CFTRact-J027, 3-(2-amino-5-nitrophenyl)-1-benzylquinoxalin-2(1H)-one]
potentiation of ΔF508-CFTR (ΔF508-CFTR): substantially less potent than ivacaftor; also recorded: only a weak potentiator | EC50 [1]: ~300 nM | intestinal fluid absorption [2]: did not affect intestinal fluid absorption | compound metabolized at 60 min ([3]; mouse hepatic microsomes): ~100% | original compound remaining at 60 min ([3]; mouse liver microsomes): 7% | half-life at 5 μM ([3]; mouse, liver microsomes, 5 μM, read-out: elimination half-life in mouse liver microsomes): 21 min | enteroid swelling response as % of that produced by maximal (5 μM) forskolin [4]: approximately 50% | stool weight, pellet number and water content (loperamide-treated mice; 10 mg/kg ip, loperamide-treated mice, 3 h stool): normalized each of the stool parameters | stool output and water content, oral (loperamide-treated mice; 10 mg/kg oral 1 h prior to loperamide): normalized stool output and water content; also recorded: effective in normalizing stool output and water content | stool output and water content after chronic administration (loperamide-treated mice; 10 mg/kg oral for 7 days, loperamide 1 h after final dose): remained effective in normalizing stool output and water content | stool output in control mice, oral (loperamide-treated mice; 10 mg/kg oral, control mice): no effect in control mice | ED50 (loperamide-treated mice; ip, read-out: ED50, ip administration, loperamide model, ip): 2 mg/kg | ED50 (loperamide-treated mice; po, read-out: ED50, oral administration, loperamide model, oral 1 h before loperamide): ~0.5 mg/kg | effect on stool parameters in cystic fibrosis mice (loperamide-treated mice; cystic fibrosis mice lacking functional CFTR): without effect | stool output and water content in control mice (loperamide-treated mice; ip, non-loperamide-treated mice): did not affect stool output or water content | duration of effect (loperamide-treated mice; mice): 3 to 4 h | CFTR activation at 3 μM (human wildtype CFTR [5]; 3 μM): nearly full activation | EC50 (human wildtype CFTR [5]; EC50 for CFTR activation, FRT cells, wild-type CFTR, short-circuit current): ~200 nM and 200 nM | extent of CFTR activation (Isc) (human wildtype CFTR [5]; forskolin produced little or no further increase in current): fully activated CFTR | EC50 (human wildtype CFTR [6]): 200 nM
